# According to patent US20260262643A1, “HERBICIDAL BENZOXAZINES” (FMC CORPORATION, priority 2022, published 2026):
# Columns and labels:
# barnyardgrass [1] = experiment: Test C preemergence; assay type: in vivo, Echinochloa crusgalli; conditions: 0 to 100 scale (0 no effect, 100 complete control); for Plant response rating, Barnyardgrass: Preemergence, 500 g ai/ha, visual rating after 10 days; for Barnyardgrass plant response rating: Test C, preemergence, 125 g ai/ha
# Method in brief: (§1)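 Greenhouse herbicide screen, 10-day duration. Test chemicals in solvent/surfactant blend were sprayed onto soil at sowing (pre) or onto 2–10 cm seedlings at one to two leaves (post); injury scored visually against controls, 0 no effect to 100 complete control.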
# blackgrass [2] = experiment: Test C preemergence; assay type: in vivo, Alopecurus myosuroides; conditions: 0 to 100 scale (0 no effect, 100 complete control); for Plant response rating, Blackgrass: Preemergence, 500 g ai/ha, visual rating after 10 days; for Blackgrass plant response rating: Test C, preemergence, 125 g ai/ha
# Method in brief: as §1
# corn [3] = experiment: Test C preemergence; assay type: in vivo, Zea mays; conditions: 0 to 100 scale (0 no effect, 100 complete control); for Plant response rating, Corn: Preemergence, 500 g ai/ha, visual rating after 10 days; for Corn plant response rating: Test C, preemergence, 125 g ai/ha
# Method in brief: as §1
# green foxtail [4] = experiment: Test C preemergence; assay type: in vivo, Setaria viridis; conditions: 0 to 100 scale (0 no effect, 100 complete control); for Plant response rating, Foxtail, Green: Preemergence, 500 g ai/ha, visual rating after 10 days; for Foxtail, Green plant response rating: Test C, preemergence, 125 g ai/ha
# Method in brief: as §1
# kochia [5] = experiment: Test C preemergence; assay type: in vivo, Bassia scoparia; conditions: 0 to 100 scale (0 no effect, 100 complete control); for Plant response rating, Kochia: Preemergence, 500 g ai/ha, visual rating after 10 days; for Kochia plant response rating: Test C, preemergence, 125 g ai/ha
# Method in brief: as §1
# oat, wild [6] = experiment: Test C preemergence; assay type: in vivo, Avena fatua; conditions: 0 to 100 scale (0 no effect, 100 complete control); for Plant response rating, Oat, Wild: Preemergence, 500 g ai/ha, visual rating after 10 days; for Oat, Wild plant response rating: Test C, preemergence, 125 g ai/ha
# Method in brief: as §1
# pigweed, palmer [7] = experiment: Test C preemergence; assay type: in vivo, Amaranthus palmeri; conditions: 0 to 100 scale (0 no effect, 100 complete control); for Plant response rating, Pigweed, Palmer: Preemergence, 500 g ai/ha, visual rating after 10 days
# Method in brief: as §1
# ragweed [8] = experiment: Test C preemergence; assay type: in vivo, Ambrosia artemisiifolia; conditions: 0 to 100 scale (0 no effect, 100 complete control); for Plant response rating, Ragweed: Preemergence, 500 g ai/ha, visual rating after 10 days; for Ragweed plant response rating: Test C, preemergence, 125 g ai/ha
# Method in brief: as §1
# ryegrass, Italian [9] = experiment: Test C preemergence; assay type: in vivo, Lolium multiflorum; conditions: 0 to 100 scale (0 no effect, 100 complete control); for Plant response rating, Ryegrass, Italian: Preemergence, 500 g ai/ha, visual rating after 10 days; for Ryegrass, Italian plant response rating: Test C, preemergence, 125 g ai/ha
# Method in brief: as §1
# soybean [10] = experiment: Test C preemergence; assay type: in vivo, Glycine max; conditions: 0 to 100 scale (0 no effect, 100 complete control); for Plant response rating, Soybean: Preemergence, 500 g ai/ha, visual rating after 10 days; for Soybean plant response rating: Test C, preemergence, 125 g ai/ha
# Method in brief: as §1
# wheat [11] = experiment: Test C preemergence; assay type: in vivo, Triticum aestivum; conditions: 0 to 100 scale (0 no effect, 100 complete control); for Plant response rating, Wheat: Preemergence, 500 g ai/ha, visual rating after 10 days; for Wheat plant response rating: Test C, preemergence, 125 g ai/ha
# Method in brief: as §1
# barnyardgrass [12] = experiment: Test C postemergence; assay type: in vivo, Echinochloa crusgalli; conditions: 10 days
# Method in brief: as §1
# blackgrass [13] = experiment: Test C postemergence; assay type: in vivo, Alopecurus myosuroides; conditions: 10 days
# Method in brief: as §1
# corn [14] = experiment: Test C postemergence; assay type: in vivo, Zea mays; conditions: 10 days
# Method in brief: as §1
# green foxtail [15] = experiment: Test C postemergence; assay type: in vivo, Setaria viridis; conditions: 10 days
# Method in brief: as §1
# kochia [16] = experiment: Test C postemergence; assay type: in vivo, Bassia scoparia; conditions: 10 days
# Method in brief: as §1
# oat, wild [17] = experiment: Test C postemergence; assay type: in vivo, Avena fatua; conditions: 10 days
# Method in brief: as §1
# pigweed, palmer [18] = experiment: Test C postemergence; assay type: in vivo, Amaranthus palmeri; conditions: 10 days
# Method in brief: as §1
# ragweed [19] = experiment: Test C postemergence; assay type: in vivo, Ambrosia artemisiifolia; conditions: 10 days
# Method in brief: as §1
# ryegrass, Italian [20] = experiment: Test C postemergence; assay type: in vivo, Lolium multiflorum; conditions: 10 days
# Method in brief: as §1
# soybean [21] = experiment: Test C postemergence; assay type: in vivo, Glycine max; conditions: 10 days
# Method in brief: as §1
# wheat [22] = experiment: Test C postemergence; assay type: in vivo, Triticum aestivum; conditions: 10 days
# Method in brief: as §1
# horseweed = experiment: Test C postemergence; assay type: in vivo, Erigeron canadensis; conditions: 10 days
# Method in brief: as §1
# barnyardgrass [23] = experiment: Test D flooded paddy test; assay type: in vivo, Echinochloa crus-galli; conditions: 250 g ai/ha, applied to paddy water, visual rating after 13 to 14 days, scale 0 to 100 (0 no effect, 100 complete control)
# Method in brief: (§2)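 Plants grown to the 2-leaf stage; pots flooded to 3 cm above soil at treatment and held at that depth throughout. Test compounds applied directly to the paddy water. After 13 to 14 days in a greenhouse, response was rated visually versus controls on a 0 (no effect) to 100 (complete control) scale.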
# ducksalad = experiment: Test D flooded paddy test; assay type: in vivo, Heteranthera limosa; conditions: 250 g ai/ha, applied to paddy water, visual rating after 13 to 14 days, scale 0 to 100 (0 no effect, 100 complete control)
# Method in brief: as §2
# rice = experiment: Test D flooded paddy test; assay type: in vivo, Oryza sativa; conditions: 250 g ai/ha, applied to paddy water, visual rating after 13 to 14 days, scale 0 to 100 (0 no effect, 100 complete control)
# Method in brief: as §2
# sedge, umbrella = experiment: Test D flooded paddy test; assay type: in vivo, Cyperus difformis; conditions: 250 g ai/ha, applied to paddy water, visual rating after 13 to 14 days, scale 0 to 100 (0 no effect, 100 complete control)
# Method in brief: as §2
# [24] = 125 g ai/ha, postemergence, 0 to 100 scale, 0 no effect, 100 complete control
# [25] = Postemergence, 500 g ai/ha, visual 0 to 100 scale (0 no effect, 100 complete control)
smiles,measurement,setting,value
Cc1cn(-c2cccc(C(=O)N3C[C@H](C)Oc4c(C)cccc43)c2)cn1 [Compound 232],"Plant response rating, Barnyardgrass",barnyardgrass [1],0
same,Barnyardgrass plant response rating,barnyardgrass [1],0
same,"Plant response rating, Blackgrass",blackgrass [2],0
same,Blackgrass plant response rating,blackgrass [2],0
same,"Plant response rating, Corn",corn [3],0
same,Corn plant response rating,corn [3],0
same,"Plant response rating, Foxtail, Green",green foxtail [4],0
same,"Foxtail, Green plant response rating",green foxtail [4],0
same,"Plant response rating, Kochia",kochia [5],0
same,Kochia plant response rating,kochia [5],0
same,"Plant response rating, Oat, Wild","oat, wild [6]",0
same,"Oat, Wild plant response rating","oat, wild [6]",0
same,"Plant response rating, Pigweed, Palmer","pigweed, palmer [7]",0
same,"Plant response rating, Ragweed",ragweed [8],0
same,Ragweed plant response rating,ragweed [8],0
same,"Plant response rating, Ryegrass, Italian","ryegrass, Italian [9]",20
same,"Ryegrass, Italian plant response rating","ryegrass, Italian [9]",20
same,"Plant response rating, Soybean",soybean [10],0
same,Soybean plant response rating,soybean [10],0
same,"Plant response rating, Wheat",wheat [11],0
same,Wheat plant response rating,wheat [11],0
same,"Plant response rating, Barnyardgrass",barnyardgrass [12]; [24],10
same,"Plant response rating, Barnyardgrass",barnyardgrass [12]; [25],20
same,"Plant response rating, Blackgrass",blackgrass [13]; [24],0
same,"Plant response rating, Blackgrass",blackgrass [13]; [25],50
same,"Plant response rating, Corn",corn [14]; [24],0
same,"Plant response rating, Corn",corn [14]; [25],0
same,"Plant response rating, Foxtail, Green",green foxtail [15]; [24],0
same,"Plant response rating, Foxtail, Green",green foxtail [15]; [25],30
same,"Plant response rating, Kochia",kochia [16]; [24],0
same,"Plant response rating, Kochia",kochia [16]; [25],60
same,"Plant response rating, Oat, Wild","oat, wild [17]; [24]",0
same,"Plant response rating, Oat, Wild","oat, wild [17]; [25]",0
same,"Plant response rating, Pigweed, Palmer","pigweed, palmer [18]; [24]",0
same,"Plant response rating, Pigweed, Palmer","pigweed, palmer [18]; [25]",10
same,"Plant response rating, Ragweed",ragweed [19]; [24],0
same,"Plant response rating, Ragweed",ragweed [19]; [25],30
same,"Plant response rating, Ryegrass, Italian","ryegrass, Italian [20]; [24]",30
same,"Plant response rating, Ryegrass, Italian","ryegrass, Italian [20]; [25]",60
same,"Plant response rating, Soybean",soybean [21]; [24],100
same,"Plant response rating, Soybean",soybean [21]; [25],100
same,"Plant response rating, Wheat",wheat [22]; [24],10
same,"Plant response rating, Wheat",wheat [22]; [25],10
same,"Plant response rating, Horseweed",horseweed; [24],0
same,"Plant response rating, Horseweed",horseweed; [25],0
same,"Plant response rating, Barnyardgrass (Flood)",barnyardgrass [23],0
same,"Plant response rating, Ducksalad (Flood)",ducksalad,0
same,"Plant response rating, Rice (Flood)",rice,0
same,"Plant response rating, Sedge, Umbrella (Flood)","sedge, umbrella",0
"COc1cc(-n2cnc(C(C)C)n2)cc(C(=O)N2C[C@H](C)Oc3c(Cl)cccc32)c1OC [Compound 194, [(2S)-8-chloro-2-methyl-2,3-dihydro-1,4-benzoxazin-4-yl]-[5-(3-isopropyl-1,2,4-triazol-1-yl)-2,3-dimethoxy-phenyl]methanone]","Plant response rating, Barnyardgrass",barnyardgrass [1],70
same,Barnyardgrass plant response rating,barnyardgrass [1],10
same,"Plant response rating, Blackgrass",blackgrass [2],80
same,Blackgrass plant response rating,blackgrass [2],20
same,"Plant response rating, Corn",corn [3],30
same,Corn plant response rating,corn [3],0
same,"Plant response rating, Foxtail, Green",green foxtail [4],100
same,"Foxtail, Green plant response rating",green foxtail [4],70
same,"Plant response rating, Kochia",kochia [5],0
same,Kochia plant response rating,kochia [5],0
same,"Plant response rating, Oat, Wild","oat, wild [6]",90
same,"Oat, Wild plant response rating","oat, wild [6]",20
same,"Plant response rating, Pigweed, Palmer","pigweed, palmer [7]",30
same,"Pigweed, Palmer plant response rating","pigweed, palmer [7]; Test C, preemergence, 125 g ai/ha",20
same,"Plant response rating, Ragweed",ragweed [8],20
same,Ragweed plant response rating,ragweed [8],20
same,"Plant response rating, Ryegrass, Italian","ryegrass, Italian [9]",90
same,"Ryegrass, Italian plant response rating","ryegrass, Italian [9]",70
same,"Plant response rating, Soybean",soybean [10],10
same,Soybean plant response rating,soybean [10],10
same,"Plant response rating, Wheat",wheat [11],50
same,Wheat plant response rating,wheat [11],0
same,"Plant response rating, Barnyardgrass",barnyardgrass [12]; [24],10
same,"Plant response rating, Barnyardgrass",barnyardgrass [12]; [25],30
same,pest or weed control at 125 g/ha,"blackgrass [13]; Alopecurus myosuroides, post-emergence, 240 h, 125 g ai/ha, postemergence, 0 to 100 scale (0 no effect, 100 complete control), read-out: Plant response rating, Blackgrass",0%
same,pest or weed control at 500 g/ha,"blackgrass [13]; Alopecurus myosuroides, post-emergence, 240 h, Postemergence, 500 g ai/ha, visual 0 to 100 scale (0 no effect, 100 complete control), read-out: Plant response rating, Blackgrass",30%
same,"Corn plant response rating (crop injury, 0 = no effect, 100 = complete kill) at 125 g/ha","corn [14]; Zea mays, post-emergence, 240 h, 125 g ai/ha, postemergence, 0 to 100 scale (0 no effect, 100 complete control)",10%
same,"Corn plant response rating (crop injury, 0 = no effect, 100 = complete kill) at 500 g/ha","corn [14]; Zea mays, post-emergence, 240 h, Postemergence, 500 g ai/ha, visual 0 to 100 scale (0 no effect, 100 complete control)",20%
same,"Plant response rating, Foxtail, Green",green foxtail [15]; [24],10
same,"Plant response rating, Foxtail, Green",green foxtail [15]; [25],50
same,"Plant response rating, Kochia",kochia [16]; [24],10
same,"Plant response rating, Kochia",kochia [16]; [25],80
same,"Plant response rating, Oat, Wild","oat, wild [17]; [24]",0
same,"Plant response rating, Oat, Wild","oat, wild [17]; [25]",20
same,"Plant response rating, Pigweed, Palmer","pigweed, palmer [18]; [24]",0
same,"Plant response rating, Pigweed, Palmer","pigweed, palmer [18]; [25]",20
same,"Plant response rating, Ragweed",ragweed [19]; [24],0
same,"Plant response rating, Ragweed",ragweed [19]; [25],50
same,"Plant response rating, Ryegrass, Italian","ryegrass, Italian [20]; [24]",30
same,"Plant response rating, Ryegrass, Italian","ryegrass, Italian [20]; [25]",70
same,"Plant response rating, Soybean",soybean [21]; [24],90
same,"Plant response rating, Soybean",soybean [21]; [25],90
same,"Plant response rating, Wheat",wheat [22]; [24],20
same,"Plant response rating, Wheat",wheat [22]; [25],20
same,"Plant response rating, Horseweed",horseweed; [24],0
same,"Plant response rating, Horseweed",horseweed; [25],0
same,"Plant response rating, Barnyardgrass (Flood)",barnyardgrass [23],0
same,"Plant response rating, Ducksalad (Flood)",ducksalad,0
same,"Plant response rating, Rice (Flood)",rice,0
same,"Plant response rating, Sedge, Umbrella (Flood)","sedge, umbrella",0
